Results taken from paper PMC8115619, “Generation of a chemical genetic model for JAK3” (Scientific Reports, 2021).

Assays:
Format in all cases: biochemical
[1] = tested on: panel of 139 kinases; assay: In vitro selectivity screen, whole panel; settings: 1 μM, panel of 139 kinases in vitro
Protocol: (§1) For the in vitro kinase assay, JAK3 (5–20 mU diluted in 50 mM Tris pH 7.5, 0.1 mM EGTA, 0.05% β-mercaptoethanol, 1 mg/ml BSA) was assayed against PDKtide ([…]) in a final volume of 25.5 µl containing 50 mM Tris pH 7.5, 0.1 mM EGTA, 0.05% β-mercaptoethanol, 100 µM substrate peptide, 10 mM magnesium acetate and 0.02 mM [33P-γ-ATP] (50–1000 cpm/pmole) and incubated for 30 min at room temperature. Assays were started by the addition of the ATP and stopped by addition of 5 µl of 0.5 M (3%) orthophosphoric acid and then harvested onto P81 Unifilter plates with a wash buffer of 50 mM orthophosphoric acid. To determine the Km for ATP, assays were run using 1, 5, 10, 20, 50, 100, 200, 400, 500 μM ATP and Km derived by non-linear regression fitting to the Michaelis–Menten equation v = Vmax[S]/(Km + [S]). IC50 values for inhibitors via non-linear regression using a parameter model: Y = Bottom + (Top–Bottom)/(1 + (IC50/X)^HillSlope). Non-linear regression was carried out in Prism (version 8). In vitro selectivity screen was carried out as described previously.

[2] = molecular target: ABL (Homo sapiens, UniProt P00519); assay: Selectivity screen ABL; settings: 1 µM inhibitor, mean
Protocol: as §1

[3] = tested on: AMPK; assay: Selectivity screen AMPK; settings: 1 µM inhibitor, mean
[4] = molecular target: BRSK2 (Homo sapiens, UniProt Q8IWQ3); assay: Selectivity screen BRSK2; settings: 1 µM inhibitor, mean
Protocol: as §1

[5] = molecular target: CAMKKb (Homo sapiens, UniProt Q96RR4); assay: Selectivity screen CAMKKb; settings: 1 µM inhibitor, mean
[6] = molecular target: CSK (Homo sapiens, UniProt P41240); assay: Selectivity screen CSK; settings: 1 µM inhibitor, mean
Protocol: as §1

[7] = molecular target: DAPK1 (Homo sapiens, UniProt P53355); assay: Selectivity screen DAPK1; settings: 1 µM inhibitor, mean
Protocol: as §1

[8] = molecular target: DDR2 (Homo sapiens, UniProt Q16832); assay: Selectivity screen DDR2; settings: 1 µM inhibitor, mean
Chain of DDR2 (Q16832 22-855): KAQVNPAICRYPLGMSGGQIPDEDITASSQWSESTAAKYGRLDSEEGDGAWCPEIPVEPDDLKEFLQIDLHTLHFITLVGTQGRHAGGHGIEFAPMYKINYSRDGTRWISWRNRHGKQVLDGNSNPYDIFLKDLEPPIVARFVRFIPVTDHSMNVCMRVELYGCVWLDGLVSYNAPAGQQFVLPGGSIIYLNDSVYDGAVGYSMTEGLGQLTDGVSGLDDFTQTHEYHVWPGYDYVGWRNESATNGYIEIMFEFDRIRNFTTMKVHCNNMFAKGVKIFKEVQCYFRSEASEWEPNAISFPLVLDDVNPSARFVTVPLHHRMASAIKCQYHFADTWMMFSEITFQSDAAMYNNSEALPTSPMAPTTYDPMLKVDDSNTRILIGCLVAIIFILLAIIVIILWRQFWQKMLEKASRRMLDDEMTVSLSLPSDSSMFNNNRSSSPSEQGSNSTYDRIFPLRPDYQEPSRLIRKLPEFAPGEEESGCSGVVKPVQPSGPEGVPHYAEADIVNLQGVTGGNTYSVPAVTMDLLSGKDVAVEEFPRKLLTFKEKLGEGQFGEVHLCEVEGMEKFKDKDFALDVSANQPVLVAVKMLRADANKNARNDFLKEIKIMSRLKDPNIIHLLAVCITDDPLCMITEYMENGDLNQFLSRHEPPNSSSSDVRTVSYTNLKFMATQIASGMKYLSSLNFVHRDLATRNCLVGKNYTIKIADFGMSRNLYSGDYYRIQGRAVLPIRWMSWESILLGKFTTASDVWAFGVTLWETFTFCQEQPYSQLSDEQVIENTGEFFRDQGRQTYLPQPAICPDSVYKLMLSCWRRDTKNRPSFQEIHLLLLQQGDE
Protocol: as §1

[9] = molecular target: DYRK1A (Homo sapiens, UniProt Q13627); assay: Selectivity screen DYRK1A; settings: 1 µM inhibitor, mean
Protocol: as §1

[10] = molecular target: DYRK3 (Homo sapiens, UniProt O43781); assay: Selectivity screen DYRK3; settings: 1 µM inhibitor, mean
Protocol: as §1

[11] = molecular target: EIF2AK3 (Homo sapiens, UniProt Q9NZJ5); assay: Selectivity screen EIF2AK3; settings: 1 µM inhibitor, mean
Protocol: as §1

[12] = molecular target: EPH-A2 (Homo sapiens, UniProt P29317); assay: Selectivity screen EPH-A2; settings: 1 µM inhibitor, mean
Protocol: as §1

[13] = molecular target: EPH-B1 (Homo sapiens, UniProt P54762); assay: Selectivity screen EPH-B1; settings: 1 µM inhibitor, mean
Protocol: as §1

[14] = molecular target: ERK8 (Homo sapiens, UniProt Q8TD08); assay: Selectivity screen ERK8; settings: 1 µM inhibitor, mean
Protocol: as §1

[15] = molecular target: FGF-R1 (Homo sapiens, UniProt P11362); assay: Selectivity screen FGF-R1; settings: 1 µM inhibitor, mean
Protocol: as §1

[16] = molecular target: IKKe (Homo sapiens, UniProt Q14164); assay: Selectivity screen IKKe; settings: 1 µM inhibitor, mean
Protocol: as §1

[17] = molecular target: IRAK1 (Homo sapiens, UniProt P51617); assay: Selectivity screen IRAK1; settings: 1 µM inhibitor, mean
Chain of IRAK1 (P51617 whole entry): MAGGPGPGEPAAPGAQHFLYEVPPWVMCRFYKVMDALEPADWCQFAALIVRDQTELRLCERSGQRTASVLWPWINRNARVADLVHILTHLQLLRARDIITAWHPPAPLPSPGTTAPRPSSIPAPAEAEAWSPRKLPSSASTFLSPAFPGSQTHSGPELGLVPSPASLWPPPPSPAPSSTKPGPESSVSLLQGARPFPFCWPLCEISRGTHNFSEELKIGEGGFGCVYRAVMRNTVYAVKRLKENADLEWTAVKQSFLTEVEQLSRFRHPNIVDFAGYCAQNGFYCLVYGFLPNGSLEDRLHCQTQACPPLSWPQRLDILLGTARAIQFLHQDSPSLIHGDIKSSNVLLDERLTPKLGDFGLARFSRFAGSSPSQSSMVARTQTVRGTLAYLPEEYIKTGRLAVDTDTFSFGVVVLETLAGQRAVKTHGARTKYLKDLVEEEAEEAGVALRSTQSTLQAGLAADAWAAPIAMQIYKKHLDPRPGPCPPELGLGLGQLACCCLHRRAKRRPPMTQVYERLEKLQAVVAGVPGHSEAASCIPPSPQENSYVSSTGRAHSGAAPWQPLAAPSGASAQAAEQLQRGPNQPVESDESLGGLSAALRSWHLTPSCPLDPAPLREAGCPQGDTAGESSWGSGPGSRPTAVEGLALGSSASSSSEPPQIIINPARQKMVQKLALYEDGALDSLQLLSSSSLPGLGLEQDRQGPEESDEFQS
Protocol: as §1

[18] = molecular target: IRR (Homo sapiens, UniProt P14616); assay: Selectivity screen IRR; settings: 1 µM inhibitor, mean
Chain of IRR (P14616 27-1297): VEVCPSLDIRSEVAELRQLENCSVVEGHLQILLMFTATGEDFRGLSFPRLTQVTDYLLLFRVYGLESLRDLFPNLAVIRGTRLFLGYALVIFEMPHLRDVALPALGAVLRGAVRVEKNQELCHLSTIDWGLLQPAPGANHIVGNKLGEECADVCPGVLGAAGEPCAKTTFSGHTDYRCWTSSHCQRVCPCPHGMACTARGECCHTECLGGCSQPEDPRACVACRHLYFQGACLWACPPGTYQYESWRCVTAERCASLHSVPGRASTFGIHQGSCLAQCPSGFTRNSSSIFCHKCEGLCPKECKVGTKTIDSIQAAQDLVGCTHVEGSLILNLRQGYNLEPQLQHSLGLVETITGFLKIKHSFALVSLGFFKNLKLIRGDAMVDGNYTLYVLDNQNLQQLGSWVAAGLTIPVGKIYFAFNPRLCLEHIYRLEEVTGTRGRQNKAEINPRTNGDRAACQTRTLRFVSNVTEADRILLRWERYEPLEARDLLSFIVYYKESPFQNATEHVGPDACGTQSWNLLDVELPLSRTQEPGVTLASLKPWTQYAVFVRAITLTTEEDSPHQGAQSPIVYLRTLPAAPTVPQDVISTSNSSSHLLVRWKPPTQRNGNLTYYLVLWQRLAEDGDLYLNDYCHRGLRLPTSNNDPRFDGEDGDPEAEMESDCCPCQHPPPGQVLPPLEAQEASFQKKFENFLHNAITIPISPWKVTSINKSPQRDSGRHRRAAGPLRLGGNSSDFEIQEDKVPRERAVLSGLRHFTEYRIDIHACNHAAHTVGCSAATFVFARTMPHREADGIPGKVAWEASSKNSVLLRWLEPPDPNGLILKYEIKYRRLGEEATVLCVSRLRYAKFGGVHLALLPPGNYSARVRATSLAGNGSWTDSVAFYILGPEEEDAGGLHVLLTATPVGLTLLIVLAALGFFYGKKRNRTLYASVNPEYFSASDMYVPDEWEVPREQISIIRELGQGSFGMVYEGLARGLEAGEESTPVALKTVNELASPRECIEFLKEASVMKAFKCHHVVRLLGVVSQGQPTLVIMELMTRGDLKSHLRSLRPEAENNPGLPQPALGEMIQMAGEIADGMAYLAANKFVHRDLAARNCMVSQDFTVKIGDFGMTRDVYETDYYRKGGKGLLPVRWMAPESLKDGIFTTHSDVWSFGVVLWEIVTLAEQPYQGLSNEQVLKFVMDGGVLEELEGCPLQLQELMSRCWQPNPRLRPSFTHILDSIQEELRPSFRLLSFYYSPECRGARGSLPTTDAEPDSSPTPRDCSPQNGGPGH
Protocol: as §1

[19] = molecular target: JNK3 (Homo sapiens, UniProt P53779); assay: Selectivity screen JNK3; settings: 1 µM inhibitor, mean
Chain of JNK3 (P53779 whole entry): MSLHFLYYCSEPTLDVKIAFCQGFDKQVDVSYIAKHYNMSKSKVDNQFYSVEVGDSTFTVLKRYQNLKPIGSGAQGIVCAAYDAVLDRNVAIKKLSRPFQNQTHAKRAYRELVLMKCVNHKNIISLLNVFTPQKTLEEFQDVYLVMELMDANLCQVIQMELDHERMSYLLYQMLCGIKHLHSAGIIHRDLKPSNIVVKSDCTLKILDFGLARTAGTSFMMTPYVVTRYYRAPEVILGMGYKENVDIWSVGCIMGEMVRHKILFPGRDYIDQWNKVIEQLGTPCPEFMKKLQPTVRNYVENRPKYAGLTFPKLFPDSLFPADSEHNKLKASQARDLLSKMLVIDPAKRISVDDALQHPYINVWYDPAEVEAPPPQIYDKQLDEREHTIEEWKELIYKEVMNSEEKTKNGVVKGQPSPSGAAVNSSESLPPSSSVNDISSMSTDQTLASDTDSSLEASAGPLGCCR
Protocol: as §1

[20] = molecular target: Lck (Homo sapiens, UniProt P06239); assay: Selectivity screen Lck; settings: 1 µM inhibitor, mean
Protocol: as §1

[21] = molecular target: MAP4K5 (Homo sapiens, UniProt Q9Y4K4); assay: Selectivity screen MAP4K5; settings: 1 µM inhibitor, mean
Protocol: as §1

[22] = molecular target: MKK6 (Homo sapiens, UniProt P52564); assay: Selectivity screen MKK6; settings: 1 µM inhibitor, mean
Protocol: as §1

[23] = molecular target: MLK3 (Homo sapiens, UniProt Q16584); assay: Selectivity screen MLK3; settings: 1 µM inhibitor, mean
Protocol: as §1

[24] = molecular target: MST3 (Homo sapiens, UniProt Q9Y6E0); assay: Selectivity screen MST3; settings: 1 µM inhibitor, mean
Protocol: as §1

[25] = molecular target: OSR1 (Homo sapiens, UniProt O95747); assay: Selectivity screen OSR1; settings: 1 µM inhibitor, mean
Protocol: as §1

[26] = molecular target: p38g MAPK (Homo sapiens, UniProt P53778); assay: Selectivity screen p38g MAPK; settings: 1 µM inhibitor, mean
Chain of p38g MAPK (P53778 whole entry): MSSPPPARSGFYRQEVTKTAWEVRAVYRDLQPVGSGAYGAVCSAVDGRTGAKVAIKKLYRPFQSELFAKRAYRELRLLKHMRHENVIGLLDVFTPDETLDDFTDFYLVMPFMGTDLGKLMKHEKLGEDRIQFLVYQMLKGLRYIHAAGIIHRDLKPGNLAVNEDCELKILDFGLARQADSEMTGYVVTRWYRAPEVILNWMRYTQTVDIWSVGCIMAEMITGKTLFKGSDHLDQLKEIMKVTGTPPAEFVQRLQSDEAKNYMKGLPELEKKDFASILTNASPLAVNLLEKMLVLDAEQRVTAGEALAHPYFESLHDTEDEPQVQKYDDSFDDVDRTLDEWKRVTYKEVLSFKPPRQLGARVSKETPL
Protocol: as §1

[27] = molecular target: PAK5 (Homo sapiens, UniProt Q9P286); assay: Selectivity screen PAK5; settings: 1 µM inhibitor, mean
Protocol: as §1

[28] = molecular target: PIM2 (Homo sapiens, UniProt Q9P1W9); assay: Selectivity screen PIM2; settings: 1 µM inhibitor, mean
Protocol: as §1

[29] = molecular target: PIM3 (Homo sapiens, UniProt Q86V86); assay: Selectivity screen PIM3; settings: 1 µM inhibitor, mean
Protocol: as §1

[30] = molecular target: PKCγ (Homo sapiens, UniProt P05129); assay: Selectivity screen PKCγ; settings: 1 µM inhibitor, mean
Protocol: as §1

[31] = molecular target: PLK1 (Homo sapiens, UniProt P53350); assay: Selectivity screen PLK1; settings: 1 µM inhibitor, mean
Protocol: as §1

[32] = molecular target: PRK2 (Homo sapiens, UniProt Q16513); assay: Selectivity screen PRK2; settings: 1 µM inhibitor, mean
Protocol: as §1

[33] = molecular target: ROCK 2 (Homo sapiens, UniProt O75116); assay: Selectivity screen ROCK 2; settings: 1 µM inhibitor, mean
Chain of ROCK 2 (O75116 whole entry): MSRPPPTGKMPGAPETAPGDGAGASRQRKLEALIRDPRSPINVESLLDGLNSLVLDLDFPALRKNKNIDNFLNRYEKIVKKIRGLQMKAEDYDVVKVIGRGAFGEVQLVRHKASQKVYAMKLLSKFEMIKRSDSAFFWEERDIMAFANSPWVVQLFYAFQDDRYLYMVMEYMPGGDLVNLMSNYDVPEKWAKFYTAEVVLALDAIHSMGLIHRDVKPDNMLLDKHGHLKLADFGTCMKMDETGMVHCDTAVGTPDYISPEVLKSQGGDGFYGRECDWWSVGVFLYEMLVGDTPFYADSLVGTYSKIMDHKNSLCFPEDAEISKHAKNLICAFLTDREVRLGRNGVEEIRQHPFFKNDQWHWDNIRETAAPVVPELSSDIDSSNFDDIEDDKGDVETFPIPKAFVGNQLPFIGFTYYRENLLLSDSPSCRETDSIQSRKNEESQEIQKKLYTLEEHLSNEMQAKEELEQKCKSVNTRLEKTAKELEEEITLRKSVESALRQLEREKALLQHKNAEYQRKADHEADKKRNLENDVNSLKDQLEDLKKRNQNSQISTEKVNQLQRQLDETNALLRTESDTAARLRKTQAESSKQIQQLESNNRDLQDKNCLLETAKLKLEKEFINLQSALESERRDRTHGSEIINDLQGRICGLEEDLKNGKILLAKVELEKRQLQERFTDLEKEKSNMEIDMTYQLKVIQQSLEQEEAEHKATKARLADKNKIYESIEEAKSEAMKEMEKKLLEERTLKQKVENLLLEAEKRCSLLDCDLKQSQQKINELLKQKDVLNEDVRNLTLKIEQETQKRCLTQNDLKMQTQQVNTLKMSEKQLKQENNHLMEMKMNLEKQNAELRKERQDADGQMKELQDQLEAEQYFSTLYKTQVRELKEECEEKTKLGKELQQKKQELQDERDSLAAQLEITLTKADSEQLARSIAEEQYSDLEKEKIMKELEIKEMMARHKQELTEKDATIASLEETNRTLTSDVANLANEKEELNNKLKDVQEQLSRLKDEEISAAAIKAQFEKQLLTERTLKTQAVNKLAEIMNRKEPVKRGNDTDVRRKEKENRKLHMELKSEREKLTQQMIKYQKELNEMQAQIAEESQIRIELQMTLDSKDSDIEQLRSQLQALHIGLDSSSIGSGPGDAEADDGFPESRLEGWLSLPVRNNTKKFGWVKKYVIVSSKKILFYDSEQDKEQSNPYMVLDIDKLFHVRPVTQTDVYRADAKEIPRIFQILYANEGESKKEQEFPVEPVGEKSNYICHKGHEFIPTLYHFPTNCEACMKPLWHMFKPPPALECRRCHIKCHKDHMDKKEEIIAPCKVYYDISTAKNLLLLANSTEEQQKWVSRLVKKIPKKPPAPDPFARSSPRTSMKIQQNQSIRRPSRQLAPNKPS
Protocol: as §1

[34] = molecular target: RSK1 (Homo sapiens, UniProt Q15418); assay: Selectivity screen RSK1; settings: 1 µM inhibitor, mean
Protocol: as §1

[35] = molecular target: SGK1 (Homo sapiens, UniProt O00141); assay: Selectivity screen SGK1; settings: 1 µM inhibitor, mean
Protocol: as §1

[36] = molecular target: Src (Homo sapiens, UniProt P12931); assay: Selectivity screen Src; settings: 1 µM inhibitor, mean
Protocol: as §1

[37] = molecular target: TAO1 (Homo sapiens, UniProt Q7L7X3); assay: Selectivity screen TAO1; settings: 1 µM inhibitor, mean
Protocol: as §1

[38] = molecular target: TGFBR1 (Homo sapiens, UniProt P36897); assay: Selectivity screen TGFBR1; settings: 1 µM inhibitor, mean
Protocol: as §1

SMILES | number of other kinases inhibited by more than 80% [1] | activity remaining in the presence of the inhibitor: ABL [2] | activity remaining in the presence of the inhibitor: AMPK [3] | activity remaining in the presence of the inhibitor: BRSK2 [4] | activity remaining in the presence of the inhibitor: CAMKKb [5] | activity remaining in the presence of the inhibitor: CSK [6] | activity remaining in the presence of the inhibitor: DAPK1 [7] | activity remaining in the presence of the inhibitor: DDR2 [8] | activity remaining in the presence of the inhibitor: DYRK1A [9] | activity remaining in the presence of the inhibitor: DYRK3 [10] | activity remaining in the presence of the inhibitor: EIF2AK3 [11] | activity remaining in the presence of the inhibitor: EPH-A2 [12] | activity remaining in the presence of the inhibitor: EPH-B1 [13] | activity remaining in the presence of the inhibitor: ERK8 [14] | activity remaining in the presence of the inhibitor: FGF-R1 [15] | activity remaining in the presence of the inhibitor: IKKe [16] | activity remaining in the presence of the inhibitor: IRAK1 [17] | activity remaining in the presence of the inhibitor: IRR [18] | activity remaining in the presence of the inhibitor: JNK3 [19] | activity remaining in the presence of the inhibitor: Lck [20] | other results
C=CC(=O)Nc1cccc(CNc2nc(Nc3ccc(N4CCN(C)CC4)cc3OC)ncc2Cl)c1 [TL6-144] | 4 | 87 | 91 | 90 | 6 | 113 | 94 | 83 | 90 | 95 | 98 | 72 | 85 | 90 | 44 | 100 | 81 | 56 | 87 | 77 | activity remaining in the presence of the inhibitor: MAP4K5 [21]: 83; activity remaining in the presence of the inhibitor: MKK6 [22]: 104; activity remaining in the presence of the inhibitor: MLK3 [23]: 31; activity remaining in the presence of the inhibitor: MST3 [24]: 99; activity remaining in the presence of the inhibitor: OSR1 [25]: 47; activity remaining in the presence of the inhibitor: p38g MAPK [26]: 88; activity remaining in the presence of the inhibitor: PAK5 [27]: 94; activity remaining in the presence of the inhibitor: PIM2 [28]: 97; activity remaining in the presence of the inhibitor: PIM3 [29]: 100; activity remaining in the presence of the inhibitor: PKCγ [30]: 111; activity remaining in the presence of the inhibitor: PLK1 [31]: 107; activity remaining in the presence of the inhibitor: PRK2 [32]: 78; activity remaining in the presence of the inhibitor: ROCK 2 [33]: 83; activity remaining in the presence of the inhibitor: RSK1 [34]: 61; activity remaining in the presence of the inhibitor: SGK1 [35]: 100; activity remaining in the presence of the inhibitor: Src [36]: 74; activity remaining in the presence of the inhibitor: TAO1 [37]: 99; activity remaining in the presence of the inhibitor: TGFBR1 [38]: 83
C=CC(=O)Nc1cccc(CNc2nc(Nc3ccc(N4CCOCC4)cc3)ncc2Cl)c1 [TL8-52] | 8 | 89 | 80 | 87 | 22 | 73 | 100 | 76 | 100 | 95 | 90 | 87 | 75 | 65 | 49 | 34 | 54 | 75 | 69 | 73 | activity remaining in the presence of the inhibitor: MAP4K5 [21]: 63; activity remaining in the presence of the inhibitor: MKK6 [22]: 105; activity remaining in the presence of the inhibitor: MLK3 [23]: 3; activity remaining in the presence of the inhibitor: MST3 [24]: 97; activity remaining in the presence of the inhibitor: OSR1 [25]: 98; activity remaining in the presence of the inhibitor: p38g MAPK [26]: 93; activity remaining in the presence of the inhibitor: PAK5 [27]: 90; activity remaining in the presence of the inhibitor: PIM2 [28]: 100; activity remaining in the presence of the inhibitor: PIM3 [29]: 90; activity remaining in the presence of the inhibitor: PKCγ [30]: 109; activity remaining in the presence of the inhibitor: PLK1 [31]: 114; activity remaining in the presence of the inhibitor: PRK2 [32]: 52; activity remaining in the presence of the inhibitor: ROCK 2 [33]: 93; activity remaining in the presence of the inhibitor: RSK1 [34]: 60; activity remaining in the presence of the inhibitor: SGK1 [35]: 89; activity remaining in the presence of the inhibitor: Src [36]: 53; activity remaining in the presence of the inhibitor: TAO1 [37]: 91; activity remaining in the presence of the inhibitor: TGFBR1 [38]: 104
